Results as given in article PMC4038399, “Experimental validation of [sequence]^comb virtual ligand screening results for eight proteins yields novel nanomolar and micromolar binders” (Journal of Cheminformatics, 2014).
Values after ≈ are worked out from the molar mass of the structure shown. Like-named read-outs stand apart in the source and are kept apart here.

How the values were obtained:
[1] = target: T1, 1000006: catalytic domain of protein tyrosine phosphatase (2G59) (Homo sapiens, UniProt Q16827); test: Thermal shift (thermal melt) assay, Sypro orange; format: binding, H. sapiens; conditions: for Q (quality score): ratio ΔFmelt/ΔFtotal
T1 construct: the catalytic domain of PTP from H. sapiens (PDB ID: 2G59) (1000006); New York structural genomics consortium (gift)
T1 sequence (Q16827 938-1195 limits assumed): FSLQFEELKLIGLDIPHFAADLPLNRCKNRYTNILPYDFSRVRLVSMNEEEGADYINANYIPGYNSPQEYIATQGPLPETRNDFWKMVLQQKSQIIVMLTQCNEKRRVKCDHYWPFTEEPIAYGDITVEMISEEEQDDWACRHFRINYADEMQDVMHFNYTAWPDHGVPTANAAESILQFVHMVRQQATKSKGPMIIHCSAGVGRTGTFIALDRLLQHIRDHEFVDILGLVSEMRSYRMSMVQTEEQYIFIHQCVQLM
Experimental: (§1) High throughput thermal shift assays were carried out following established guidelines (Additional file 1: Table S1). Protein melting curves were obtained from samples aliquoted in 96-well plates using a RealPlex quantitative PCR instrument from Eppendorf (Eppendorf, NY, USA), with Sypro orange dye from Invitrogen as the fluorescent probe. A uniform final concentration of 5 X (supplied as a 5000 X stock solution) was used in all experiments. The dye was excited at 465 nm and emission recorded at 580 nm using the instrument’s filters. A heating ramp of 1°C/min from 25°C to 74°C was used, and one data point acquired for each degree increment. For standardization, different buffers and pH were checked. Thereafter, 100 mM HEPES pH 7.3 and 150 mM NaCl were used in all unfolding experiments. The volume of each reaction was 20 μl, and appropriate dye and protein controls were included. All experiments were done with a minimum of two replicates, with the mean value considered for further analysis. Several drugs/small molecules interact with Sypro orange and lead to aberrant signal enhancements. An additional control to rule out drug-dye interaction was carried out with all the constituents kept constant except for the protein of interest. The protein/protein-drug curves were reported after subtracting the respective dye alone/drug-dye curves.
(§2) Each melting curve was assigned a quality score (Q), the ratio of the melting-associated increase in fluorescence (ΔFmelt) to the total fluorescence range (ΔFtotal). Q = 1 is a high-quality curve, while Q = 0 indicates no thermal transition. Though an arbitrary Q value cutoff was not applied to judge curve quality, the curves were manually curated with Q values reported. […] These were ignored (see Table 1).
(§3) Subsequent to standardization, (see SI Methods), the validity of the top 1% of […]^comb’s predictions on the test set of eight diverse proteins was examined. To be conservative, we focused only on those protein/ligand pairs showing single sigmoidal thermal transition curves. The fit to Boltzmann’s equation (Eq. 1) was employed to estimate the melting temperature from the observed intensity, I.
(§4) (4) I=Imin+Imax-Imin/1+e^Tm-T/a
(§5) Imin and Imax are the minimum and maximum intensities; a denotes the slope of the curve at the transition midpoint temperate, Tm. To estimate thermodynamic parameters, both van’t Hoff and Gibbs-Helmholtz analyses were done. To estimate the approximate ligand-binding affinity at Tm, Eq. (2) from reference was used with slight modifications; ΔCp is ignored.
(§6) (5) KLTm=exp-ΔH/R1/Tm-1/To/L
(§7) KL(Tm) is the ligand association constant and [L] is the free ligand concentration at Tm ([LTm] ~ [L]total, when [L]total > > the total concentration of protein. KD is the inverse of KL(Tm).
(§8) Thermal unfolding of the eight benchmark proteins was carried out in a 20 μl reaction mix with 100 mM HEPES pH 7.3, 150 mM NaCl, 5 X Sypro orange dye, 10 μM protein and 1 mM of all the predicted ligands.

[2] = target: T2, 1000001: Carboxy-terminus phosphatase domain of protein tyrosine phosphatase (2NV5) (Mus musculus, UniProt Q64487); test: Thermal shift (thermal melt) assay, Sypro orange; format: binding, M. musculus; design: key to Q (quality score): Q = ΔFmelt/ΔFtotal; 1 = high-quality curve, 0 = no transition; conditions: for Q (quality score): ratio ΔFmelt/ΔFtotal
T2 construct: The C-terminal phosphatase domain from R. norvegicus (PDB ID: 2NV5) (1000001); New York structural genomics consortium (gift)
T2 sequence (Q64487 1331-1621): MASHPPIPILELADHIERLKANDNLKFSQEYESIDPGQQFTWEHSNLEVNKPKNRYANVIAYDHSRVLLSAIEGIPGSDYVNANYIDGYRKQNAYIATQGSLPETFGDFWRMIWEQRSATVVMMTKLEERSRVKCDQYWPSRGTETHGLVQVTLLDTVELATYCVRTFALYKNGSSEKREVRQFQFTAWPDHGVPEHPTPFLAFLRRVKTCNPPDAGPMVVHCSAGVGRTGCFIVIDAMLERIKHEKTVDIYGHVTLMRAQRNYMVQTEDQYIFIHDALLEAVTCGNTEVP
Experimental: as §1, §2, §3, §4, §5, §6, §7, §8

[3] = tested on: HCT-116 colon carcinoma cell line; test: Cytotoxic assay on cancer cell line; format: cell-based; conditions: for IC50: Homo sapiens, HCT-116, inhibitory concentration for 50% growth inhibition, read-out: HCT-116 (IC-50)
Experimental: Antimicrobial and anti-cancer tests were performed as in [80].

[4] = target: E. coli dihydrofolate reductase (DHFR) (Escherichia coli, UniProt P0ABQ4); test: biochemical; format: binding; conditions: for Q (quality score): ratio ΔFmelt/ΔFtotal of the melting curve; for ΔTm: thermal shift, in °C (unit assumed)
Experimental: as §1, with “The dye was excited at 465 nm and emission recorded at 580 nm using the instrument’s filters. A heating ramp of 1°C/min from 25°C to 74°C was used, and one data point acquired for each degree increment.” left out
Each melting curve was assigned a quality score (Q), the ratio of the melting-associated increase in fluorescence (ΔFmelt) to the total fluorescence range (ΔFtotal). Q = 1 is a high-quality curve, while Q = 0 indicates no thermal transition. Though an arbitrary Q value cutoff was not applied to judge curve quality, the curves were manually curated with Q values reported.
as §3, §4, §5, §6, §7, §8

[5] = Table S6, known binders of 1000001 tested on 1000006, in °C (unit assumed)
[6] = Table S4, protein 1000001, computed from the thermal shifts obtained, read-out: KD (Approx)
[7] = Table S4, protein 1000001, in °C (unit assumed)
[8] = inhibitory concentration for 50% growth inhibition
[9] = Table S3, computed from the thermal shifts obtained, read-out: KD (Approx)
[10] = Table S6, 1000001, known binders of 1000001, in °C (unit assumed)
[11] = Table S4, protein 1000006, computed from the thermal shifts obtained, read-out: KD (Approx)
[12] = Table S4, protein 1000006, in °C (unit assumed)
[13] = approximate, computed from the thermal shift, read-out: KD

E. coli dihydrofolate reductase (DHFR), sequence (P0ABQ4 whole entry): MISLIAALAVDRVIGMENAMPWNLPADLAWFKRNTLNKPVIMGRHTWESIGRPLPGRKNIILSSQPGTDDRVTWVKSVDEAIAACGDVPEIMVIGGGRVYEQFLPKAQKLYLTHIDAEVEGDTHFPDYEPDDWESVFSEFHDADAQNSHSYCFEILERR

CC(=O)c1cc(O)c2ccccc2c1O [NSC 111552]
ΔTm [1, 5]: 29.52
Kd [2, 6]: ~709 nM
ΔTm [2, 7]: 11.3
Q (quality score) ([2]; Table S4, protein 1000001): 0.007
HCT-116 (IC-50) [3, 8]: 2.2 µg/mL

CC(C)=C(c1ccc(Cl)cc1)c1c(N)ncnc1N [NSC 157522]
Kd [4, 9]: ~19.5 µM
Q (quality score) ([4]; Table S3): 0.4
ΔTm ([4]; Table S3): 10.13

C1=Cc2ccccc2Nc2ccccc21 [NSC 123458]
Kd [4, 9]: ~5.64 µM
Q (quality score) ([4]; Table S3): 0.6
ΔTm ([4]; Table S3): 14.17

NS(=O)(=O)c1ccc(N=Nc2c(O)c(C(=O)O)cc3ccccc23)cc1 [NSC 134137]
ΔTm [1, 5]: 1.36
Kd [2, 6]: ~406 nM
Q (quality score) ([2]; Table S4, protein 1000001): 0.01
ΔTm [2, 10]: 11.33
Kd ([2]; approximate, computed from the thermal shift, listed as 134137, read-out: KD): 406 nM
Kd ([2]; approximate, computed from the thermal shift, listed as NSC134137, read-out: KD): ~406 nM
ΔTm ([2]; thermal shift, 1 mM ligand, 10 μM protein, listed as 134137): 12.30 °C
ΔTm ([2]; thermal shift, 1 mM ligand, 10 μM protein, listed as NSC134137): ~ 12 °C

Nc1ccc(Oc2ccc(N)c([N+](=O)[O-])c2)cc1[N+](=O)[O-] [NSC 133351]
Kd [1, 11]: ~0.168 µM
Q (quality score) ([1]; Table S4, protein 1000006): 0.1
Kd ([1]; approximate, computed from the thermal shift, listed as 133351, read-out: KD): 0.168 µM
Kd ([1]; approximate, computed from the thermal shift, listed as NSC133351, read-out: KD): ~0.168 µM
ΔTm ([1]; thermal shift, 1 mM ligand, 10 μM protein): 16.76 °C

Nc1cc(-c2ccccc2)ccc1O [NSC 7950]
Kd [1, 11]: ~271 µM
ΔTm [1, 12]: 1.22
Q (quality score) ([1]; Table S4, protein 1000006): 0.3

COc1cc(N=Nc2ccccc2C(=O)O)ccc1O [NSC 153172]
ΔTm [1, 5]: 5.48
Kd [2, 6]: ~2190 nM
ΔTm [2, 7]: 9.3
Q (quality score) ([2]; Table S4, protein 1000001): 0.1
ΔTm [2, 10]: 9.70

O=C(O)c1cc(O)ccc1N=Nc1ccccc1 [NSC 106863]
ΔTm [1, 5]: 0
Kd [2, 6]: ~6470 nM
ΔTm [2, 7]: 7.4
Q (quality score) ([2]; Table S4, protein 1000001): 1.1
ΔTm [2, 10]: 7.34
HCT-116 (IC-50) [3, 8]: 14.5 µg/mL

O=C(O)Cc1ccc(N=Nc2c(O)c(C(=O)O)cc3ccccc23)cc1 [NSC 156563]
ΔTm [1, 5]: 5.36
Kd [2, 6]: ~1320 nM
ΔTm [2, 7]: 10.2
Q (quality score) ([2]; Table S4, protein 1000001): 0.004
ΔTm [2, 10]: 10.66

O=C(Nc1ccc(C(=O)O)c(O)c1)c1ccccc1 [NSC 159686]
Kd [4]: ~12.7 µM
Q (quality score) ([4]; Table S3): 0.6

Cc1ccc(N=Nc2ccc(N)cc2C)c(S(N)(=O)=O)c1 [NSC 45527]
ΔTm [1, 5]: 5.48
Kd [2, 6]: ~567 nM
ΔTm [2, 7]: 11.7
Q (quality score) ([2]; Table S4, protein 1000001): 0.04
ΔTm [2, 10]: 11.79

O=S(=O)(O)c1ccc(N=Nc2ccccc2)cc1 [NSC 1847]
ΔTm [1, 5]: 0
Kd [2, 6]: ~43800 nM
ΔTm [2, 7]: 4.1
Q (quality score) ([2]; Table S4, protein 1000001): 0.5
ΔTm [2, 10]: 4.23

N/C(CC(=O)Nc1cc(C(F)(F)F)ccc1Cl)=N\O [NSC 379536]
Kd [4, 9]: ~28.9 µM
Q (quality score) ([4]; Table S3): 0.3
ΔTm ([4]; Table S3): 8.86

C#CCC(Cc1cnc2nc(N)nc(N)c2n1)c1ccc(C(=O)N[C@@H](CCC(=O)O)C(=O)O)cc1 (stereo partly shown) [NSC 754230, pralatrexate, reference compound]
Kd [4, 9]: ~0.499 µM
Q (quality score) ([4]; Table S3): 0.1
IC50 [3]: < 0.031 µg/mL

Nc1cc([N+](=O)[O-])ccc1Nc1ccc(O)cc1 [NSC 92794]
Kd [1, 11]: ~162 µM
ΔTm [1, 12]: 2.26
Q (quality score) ([1]; Table S4, protein 1000006): 0.004
Kd [1, 13]: 162 µM
HCT-116 (IC-50) ([3]; inhibitory concentration for 50% growth inhibition, listed as 92794): 9.78 µg/mL
HCT-116 (IC-50) ([3]; inhibitory concentration for 50% growth inhibition, listed as NSC92794): 9.8 µg/mL

O=C(Nc1ccc(Oc2ccc(NC(=O)Nc3ccc([N+](=O)[O-])cc3)cc2)cc1)Nc1ccc([N+](=O)[O-])cc1 [NSC 80735]
Kd [4, 9]: ~1.71 µM
Q (quality score) ([4]; Table S3): 0.3
ΔTm ([4]; Table S3): 18.16
Kd [4, 13]: 1.7 µM
HCT-116 (IC-50) ([3]; Table S3): 10.9
IC50 against HCT-116 ([3]; as worded): 10.9 µg/mL (≈ 20.6 µM)

Nc1nc2[nH]cc(CCc3ccc(C(=O)N[C@@H](CCC(=O)O)C(=O)O)cc3)c2c(=O)[nH]1 [NSC 698037, pemetrexed, reference compound]
Q (quality score) ([4]; Table S3): 1.3

COc1cc(NCc2ccccc2O)c2ncccc2c1 [NSC 130801]
Kd [4, 9]: ~75 µM
Q (quality score) ([4]; Table S3): 1.1
ΔTm ([4]; Table S3): 5.84

COc1cc(C(=O)C(=O)c2ccc(O)c(OC)c2)ccc1O [NSC 16722]
Kd [1, 11]: ~107 µM
ΔTm [1, 12]: 3.09
Q (quality score) ([1]; Table S4, protein 1000006): 0.4

CCOc1ccc(Nc2c3ccccc3nc3ccccc23)cc1 [NSC 30205]
ΔTm ([1]; Table S6, known binders of 1000001 tested on 1000006): Ambiguous
Kd [2, 6]: ~6850 nM
ΔTm [2, 7]: 7.3
Q (quality score) ([2]; Table S4, protein 1000001): 0.01
ΔTm [2, 10]: 9.91
HCT-116 (IC-50) ([3]; inhibitory concentration for 50% growth inhibition, listed as 30205): 0.146 µg/mL
HCT-116 (IC-50) ([3]; inhibitory concentration for 50% growth inhibition, listed as NSC30205): 0.15 µg/mL

CCCCC(=O)OCC(=O)[C@]1(O)Cc2c(O)c3c(c(O)c2[C@@H](O[C@H]2C[C@H](NC(=O)C(F)(F)F)[C@H](O)[C@H](C)O2)C1)C(=O)c1c(OC)cccc1C3=O [NSC 246131, valrubicin, reference compound]
ΔTm [1, 5]: 5.62
Kd [2, 6]: ~1470 nM
ΔTm [2, 7]: 9.99
Q (quality score) ([2]; Table S4, protein 1000001): 0.2
ΔTm [2, 10]: 10.31
Kd [2, 13]: ~1500 nM
IC50 [3]: 0.024 µg/mL (≈ 0.0332 µM)
